Read-outs that look alike come from different tables or passages of the source.

Assay [1] concerns the target T1, recombinantly expressed His-tagged protein corresponding to amino acids 575-869 of human Tyk2 (Homo sapiens, UniProt P29597).
T1 construct: made in house
The assay is described as follows: Probe displacement assay (scintillation proximity, radiolabeled probe). It is filed as binding. Conditions: 2.5 nM Tyk2 (575-869), 40 nM [3H] probe, 30 minutes at room temperature. The procedure:
The preparation of radiolabeled probe, (R)—N-(1-(3-(8-methyl-5-(methylamino)-8H-imidazo[4,5-d]thiazolo[5,4-b]pyridin-2-yl)phenyl)ethyl)-2-([^3H]methylsulfonyl)benzamide, was performed as described below: […]
(In general: In a scintillation proximity assay essentially only radioactivity close to the scintillant gives light.)

Assay [2] has as its system Kit225 T cells with STAT-dependent luciferase reporter stimulated with human recombinant IL-23. The assay is described as follows: Kit225 T cell assay, IL-23 stimulated STAT-dependent luciferase reporter. The class given is cell-based. The procedure:
(§1) Kit225 T cells with a stably-integrated STAT-dependent luciferase reporter were plated in RPMI (Gibco) containing 10% heat-inactivated FBS (Gibco) and 100 U/mL PenStrep (Gibco). The cells were then stimulated with either 20 ng/mL human recombinant IL-23 or 200 U/mL human recombinant IFNα (PBL InterferonSource) for 5-6 hours. Luciferase expression was measured using the STEADY-GLO® Luciferase Assay System (Promega) according to the manufacturer's instructions.

The test system of assay [3] is Kit225 T cells with STAT-dependent luciferase reporter stimulated with human recombinant IFNα. The assay is described as follows: Kit225 T cell assay, IFNα stimulated STAT-dependent luciferase reporter. It is filed as cell-based. The procedure: as §1
Where [4] appears, read: KIT225, 20 ng/mL human recombinant IL-23, 5-6 hours, luciferase, read-out: IL-23 Kit225 Reporter, LE (IC50).
Setting [5] is: KIT225, 200 U/mL human recombinant IFNα, 5-6 hours, luciferase, read-out: IFNa Kit225 Reporter, LE (IC50).
Setting [6] is: Homo sapiens, KIT225, read-out: IL-23 Kit225 Reporter, LE (IC50, μM).
[7] abbreviates: Homo sapiens, KIT225, read-out: IFNa Kit225 Reporter, LE (IC50, μM).

T1 sequence (P29597 with tags, fused parts or gaps): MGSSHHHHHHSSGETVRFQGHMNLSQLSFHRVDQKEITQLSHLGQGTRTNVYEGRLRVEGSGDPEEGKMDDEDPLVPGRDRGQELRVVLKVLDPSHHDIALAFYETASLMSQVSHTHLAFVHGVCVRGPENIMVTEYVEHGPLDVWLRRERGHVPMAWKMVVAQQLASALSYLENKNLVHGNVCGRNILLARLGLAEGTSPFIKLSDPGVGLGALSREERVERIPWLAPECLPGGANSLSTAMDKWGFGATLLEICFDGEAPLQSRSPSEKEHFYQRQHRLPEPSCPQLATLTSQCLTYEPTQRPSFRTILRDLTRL

As a reminder, the EC50 is the concentration giving half of the maximal effect. As usually defined, the IC50 is the concentration that gives 50% inhibition. `CNC(=O)c1cnc(NC(=O)C2CC2)cc1Nc1ccccc1S(C)(=O)=O` [Example 1]: the EC50 in assay [1] was 20 nM. Moreover, the figures for the IC50 in assay [2] (setting [4]) and in assay [3] (setting [5]) were 0.3 µM and 0.24 µM, respectively.

`CNC(=O)c1cnc(NC(C)=O)cc1Nc1ccccc1S(C)(=O)=O` [Example 2]: the EC50 in assay [1] came to 430 nM. In addition, the results for the IC50 in assay [2] (setting [4]) and in assay [3] (setting [5]) were 7.06 µM and 12.5 µM, respectively.

For `CNC(=O)c1cnc(NC(=O)[C@@H]2CCCO2)cc1Nc1ccccc1S(C)(=O)=O` [Example 3], in assay [1], the EC50 is 830 nM. Also, the 50% inhibitory concentration (IC50) is 6.52 µM in assay [2] (setting [4]) and 12.5 µM in assay [3] (setting [5]).

For `CNC(=O)c1cnc(NC(=O)C2CCOCC2)cc1Nc1ccccc1S(C)(=O)=O` [Example 4], in assay [1], the EC50 is 760 nM. Further, the figures for the IC50 in assay [2] (setting [4]) and in assay [3] (setting [5]) were 2.09 µM and 12.5 µM, respectively.

With `CNC(=O)c1cnc(NC(=O)C2CCCCC2)cc1Nc1ccccc1S(C)(=O)=O` [Example 5], in assay [1], the EC50 amounted to 800 nM. Moreover, the IC50 in assay [2] (setting [4]) was 1.88 µM; in assay [3] (setting [5]), 8.93 µM.

On to `CNC(=O)c1cnc(NC(=O)Cc2ccccc2)cc1Nc1ccccc1S(C)(=O)=O` [Example 6], for which the EC50 in assay [1] was 120 nM. The IC50 in assay [2] (setting [4]) amounted to 1.16 µM; in assay [3] (setting [5]) it was 1.11 µM.

Turning to `CNC(=O)c1cnc(NC(=O)C(C)C)cc1Nc1ccccc1S(C)(=O)=O` [Example 7], in assay [1], the EC50 was 460 nM. The IC50 in assay [2] (setting [4]) worked out at 0.4 µM; in assay [3] (setting [5]) it was 4.21 µM.

As to `CNC(=O)c1cnc(NC(=O)[C@H]2CC2(C)C)cc1Nc1ccccc1S(C)(=O)=O` [Example 8], the EC50 in assay [1] was 250 nM. Also, the IC50 was determined as 4.68 µM in assay [2] (setting [4]) and 1 µM in assay [3] (setting [5]).

Regarding `CNC(=O)c1cnc(NC(=O)C2CCCc3ccccc32)cc1Nc1ccccc1S(C)(=O)=O` (stereo not shown) [Example 9], in assay [1], the EC50 was 940 nM. In addition, the results for the IC50 in assay [2] (setting [6]) and in assay [3] (setting [7]) were 13.3 µM and 2.56 µM, respectively.

As to `CNC(=O)c1cnc(NC(=O)Cc2ccccn2)cc1Nc1ccccc1S(C)(=O)=O` [Example 10], the EC50 in assay [1] was found to be 380 nM. For the same molecule, the IC50 in assay [2] (setting [4]) is 4.55 µM; in assay [3] (setting [5]), 6.03 µM.

In the case of `CCCC(=O)Nc1cc(Nc2ccccc2S(C)(=O)=O)c(C(=O)NC)cn1` [Example 11], the EC50 in assay [1] was 240 nM. For the same molecule, the values for the half-maximal inhibitory concentration (IC50) in assay [2] (setting [4]) and in assay [3] (setting [5]) were 2.95 µM and 2.49 µM, respectively.

`CNC(=O)c1cnc(NC(=O)Cc2ccc(OC)cc2)cc1Nc1ccccc1S(C)(=O)=O` [Example 12]: the EC50 in assay [1] is 230 nM. Moreover, the half-inhibitory concentration (IC50) was found to be 4.42 µM in assay [2] (setting [4]) and 0.58 µM in assay [3] (setting [5]).

Turning to `CNC(=O)c1cnc(NC(=O)C2CCC2)cc1Nc1ccccc1S(C)(=O)=O` [Example 14], the EC50 in assay [1] is 170 nM. Besides, the IC50 came out at 3.15 µM in assay [2] (setting [4]) and 0.87 µM in assay [3] (setting [5]).

Take `CNC(=O)c1cnc(NC(=O)C2CC2)cc1Nc1ccc(F)cc1S(C)(=O)=O` [Example 15]: the EC50 in assay [1] is 50 nM. In addition, the IC50 worked out at 0.69 µM in assay [2] (setting [4]) and 0.34 µM in assay [3] (setting [5]).

Turning to `CCNC(=O)Nc1cc(Nc2ccccc2S(C)(=O)=O)c(C(=O)NC)cn1` [Example 16], the EC50 in assay [1] was found to be 90 nM. Besides, the figures for the IC50 in assay [2] (setting [4]) and in assay [3] (setting [5]) were 12.5 µM and 3.37 µM, respectively.

`CNC(=O)Nc1cc(Nc2ccccc2S(C)(=O)=O)c(C(=O)NC)cn1` [Example 17]: the EC50 in assay [1] is 200 nM. Moreover, the IC50 in assay [2] (setting [4]) turned out to be 11.4 µM; in assay [3] (setting [5]), 9.54 µM.

With `CNC(=O)c1cnc(NC(=O)C2CC2)cc1Nc1cccc(F)c1S(C)(=O)=O` [Example 18], in assay [1], the EC50 was found to be 540 nM. Moreover, the IC50 in assay [2] (setting [4]) turned out to be 6.61 µM; in assay [3] (setting [5]), 9.91 µM.

As to `CNC(=O)c1cnc(NC(=O)C2CC2)cc1Nc1ccccc1C(C)(C)O` [Example 19], the EC50 in assay [1] came out at 720 nM. For the same molecule, the IC50 in assay [2] (setting [4]) is 5.69 µM; in assay [3] (setting [5]), 8.51 µM.

As for `CNC(=O)c1cnc(NC(=O)C2CC2)cc1Nc1cc(F)ccc1S(C)(=O)=O` [Example 20], in assay [1], the EC50 was 150 nM. In addition, the values for the IC50 in assay [2] (setting [4]) and in assay [3] (setting [5]) were 1.44 µM and 1.2 µM, respectively.

Turning to `CNC(=O)c1cnc(NC(=O)C2CC2(F)F)cc1Nc1ccccc1S(C)(=O)=O` (stereo not shown) [Example 21], the EC50 in assay [1] stood at 140 nM. Moreover, the IC50 stood at 2.26 µM in assay [2] (setting [4]) and 1.85 µM in assay [3] (setting [5]).

For `CNC(=O)c1cnc(NC(=O)C2CC2F)cc1Nc1ccccc1S(C)(=O)=O` (stereo not shown) [Example 22], the concentration for a half-maximal effect (EC50) in assay [1] amounted to 80 nM. The IC50 in assay [2] (setting [4]) came to 2.12 µM; in assay [3] (setting [5]) it was 1.24 µM.

In the case of `CNC(=O)c1cnc(NC(=O)COC)cc1Nc1ccc(F)c(F)c1OC` [Example 23], the EC50 in assay [1] is 1020 nM. In addition, the IC50 worked out at 12.5 µM in assay [2] (setting [4]) and 3.89 µM in assay [3] (setting [5]).

Consider `CNC(=O)c1cnc(NC(C)=O)cc1Nc1ccc(F)c(F)c1OC` [Example 24], for which the EC50 in assay [1] came to 420 nM. Further, the IC50 worked out at 11.2 µM in assay [2] (setting [4]) and 7.24 µM in assay [3] (setting [5]).

Regarding `CNC(=O)c1cnc(NC(=O)C2CC2)cc1Nc1ccc(F)c(F)c1OC` [Example 25], the EC50 in assay [1] was found to be 40 nM. The IC50 in assay [2] (setting [4]) was found to be 0.23 µM; in assay [3] (setting [5]), 0.1 µM.

As to `CNC(=O)c1cnc(NC(=O)Nc2ccccc2)cc1Nc1ccccc1S(C)(=O)=O` [Example 27], the EC50 in assay [1] came out at 290 nM. For the same molecule, the IC50 worked out at 3.17 µM in assay [2] (setting [6]) and 3.06 µM in assay [3] (setting [7]).

Turning to `CNC(=O)c1cnc(NC(=O)C2CC2)cc1Nc1cccc(-c2nnc(C)o2)c1OC` [Example 28], the EC50 in assay [1] was found to be 10 nM. In addition, the values for the IC50 in assay [2] (setting [4]) and in assay [3] (setting [5]) were 0.07 µM and 0.04 µM, respectively.

Regarding `CNC(=O)c1cnc(NC(=O)C2CC2)cc1Nc1cccc(-c2nnc[nH]2)c1OC` [Example 29], the EC50 in assay [1] was 5.46 nM. Moreover, the IC50 in assay [2] (setting [4]) came to 0.02 µM; in assay [3] (setting [5]), 0.03 µM.

With `CNC(=O)c1cnc(NC(=O)C2CC2)cc1Nc1cccc(-c2ncn(C)n2)c1OC` [Example 30], the EC50 in assay [1] came to 6.17 nM. For the same molecule, the IC50 in assay [2] (setting [4]) is 0.03 µM; in assay [3] (setting [5]), 0.01 µM.

With `[2H]C([2H])([2H])NC(=O)c1cnc(NC(=O)C2CC2)cc1Nc1cccc(-c2ncn(C)n2)c1OC` [Example 31], in assay [1], the EC50 was found to be 3.81 nM. The results for the IC50 in assay [2] (setting [4]) and in assay [3] (setting [5]) were 0.00478 µM and 0.01 µM, respectively.

In the case of `CNC(=O)c1cnc(NC(=O)C2CC2)cc1Nc1cccc(-c2ccn(C)n2)c1OC` [Example 32], the EC50 in assay [1] was determined as 1.63 nM. Further, the IC50 in assay [2] (setting [4]) was determined as 0.00731 µM; in assay [3] (setting [5]), 0.00705 µM.

Consider `CNC(=O)c1cnc(NC(=O)C2CC2)cc1Nc1cccc(-c2ccnn2C)c1OC` [Example 33], for which the EC50 in assay [1] is 5.34 nM. Further, the IC50 in assay [2] (setting [4]) came out at 0.11 µM; in assay [3] (setting [5]) it was 0.09 µM.

With `[2H]C([2H])([2H])NC(=O)c1cnc(NC(=O)C2CC2)cc1Nc1cccc(-c2ccn(C)n2)c1OC` [Example 34], in assay [1], the EC50 came out at 6.42 nM. In addition, the IC50 in assay [2] (setting [4]) is 0.02 µM; in assay [3] (setting [5]), 0.00873 µM.

Regarding `[2H]C([2H])([2H])NC(=O)c1cnc(NC(=O)C2CC2)cc1Nc1cccc(-c2ccnn2C)c1OC` [Example 35], the EC50 in assay [1] is 40 nM. The results for the IC50 in assay [2] (setting [4]) and in assay [3] (setting [5]) were 0.06 µM and 0.28 µM, respectively.

For the molecule `[2H]C([2H])([2H])NC(=O)c1cnc(NC(=O)C2CC2)cc1Nc1cccc(-c2nnn(C)n2)c1OC` [Example 44], the IC50 in assay [2] (setting [4]) worked out at 0.00229 µM; in assay [3] (setting [5]) it was 0.00117 µM.

Consider `[2H]C([2H])([2H])NC(=O)c1cnc(NC(=O)C2CC2)cc1Nc1cccc(-c2ncc(F)cn2)c1OC` [Example 46], for which the IC50 worked out at 0.022 µM in assay [2] (setting [4]) and 0.013 µM in assay [3] (setting [5]).

Values taken from US9987266B2, “Alkyl-amide-substituted pyridyl compounds useful as modulators of IL-12, IL-23 and/or IFNα responses” (BRISTOL-MYERS SQUIBB COMPANY, priority 2013, dated 2018).
